We go through 33 compounds from article PMC3031908 (Bioorganic & medicinal chemistry, 2008).

In test [1] the target is sodium channel site 2 binding site (neuronal voltage-gated sodium channel). As to conditions: −pIC50 = −log IC50 (IC50 in μM); training set; ref literature reference; cited from earlier work.
For test [2] the target is unchanged. The test can be described thus: [3H]-BTX-B binding. Also noted: species or system rat. The note with it: for IC50: read-out: observed (actual) IC50, [3H]-BTX; for −pIC50 Obsd: test set, −log IC50 (IC50 in μM).
The next test deals with human Nav1.2 (Homo sapiens, UniProt Q99250). The class given is cell-based. As to conditions: HEK cells.
Chain of human Nav1.2 (Q99250 whole entry): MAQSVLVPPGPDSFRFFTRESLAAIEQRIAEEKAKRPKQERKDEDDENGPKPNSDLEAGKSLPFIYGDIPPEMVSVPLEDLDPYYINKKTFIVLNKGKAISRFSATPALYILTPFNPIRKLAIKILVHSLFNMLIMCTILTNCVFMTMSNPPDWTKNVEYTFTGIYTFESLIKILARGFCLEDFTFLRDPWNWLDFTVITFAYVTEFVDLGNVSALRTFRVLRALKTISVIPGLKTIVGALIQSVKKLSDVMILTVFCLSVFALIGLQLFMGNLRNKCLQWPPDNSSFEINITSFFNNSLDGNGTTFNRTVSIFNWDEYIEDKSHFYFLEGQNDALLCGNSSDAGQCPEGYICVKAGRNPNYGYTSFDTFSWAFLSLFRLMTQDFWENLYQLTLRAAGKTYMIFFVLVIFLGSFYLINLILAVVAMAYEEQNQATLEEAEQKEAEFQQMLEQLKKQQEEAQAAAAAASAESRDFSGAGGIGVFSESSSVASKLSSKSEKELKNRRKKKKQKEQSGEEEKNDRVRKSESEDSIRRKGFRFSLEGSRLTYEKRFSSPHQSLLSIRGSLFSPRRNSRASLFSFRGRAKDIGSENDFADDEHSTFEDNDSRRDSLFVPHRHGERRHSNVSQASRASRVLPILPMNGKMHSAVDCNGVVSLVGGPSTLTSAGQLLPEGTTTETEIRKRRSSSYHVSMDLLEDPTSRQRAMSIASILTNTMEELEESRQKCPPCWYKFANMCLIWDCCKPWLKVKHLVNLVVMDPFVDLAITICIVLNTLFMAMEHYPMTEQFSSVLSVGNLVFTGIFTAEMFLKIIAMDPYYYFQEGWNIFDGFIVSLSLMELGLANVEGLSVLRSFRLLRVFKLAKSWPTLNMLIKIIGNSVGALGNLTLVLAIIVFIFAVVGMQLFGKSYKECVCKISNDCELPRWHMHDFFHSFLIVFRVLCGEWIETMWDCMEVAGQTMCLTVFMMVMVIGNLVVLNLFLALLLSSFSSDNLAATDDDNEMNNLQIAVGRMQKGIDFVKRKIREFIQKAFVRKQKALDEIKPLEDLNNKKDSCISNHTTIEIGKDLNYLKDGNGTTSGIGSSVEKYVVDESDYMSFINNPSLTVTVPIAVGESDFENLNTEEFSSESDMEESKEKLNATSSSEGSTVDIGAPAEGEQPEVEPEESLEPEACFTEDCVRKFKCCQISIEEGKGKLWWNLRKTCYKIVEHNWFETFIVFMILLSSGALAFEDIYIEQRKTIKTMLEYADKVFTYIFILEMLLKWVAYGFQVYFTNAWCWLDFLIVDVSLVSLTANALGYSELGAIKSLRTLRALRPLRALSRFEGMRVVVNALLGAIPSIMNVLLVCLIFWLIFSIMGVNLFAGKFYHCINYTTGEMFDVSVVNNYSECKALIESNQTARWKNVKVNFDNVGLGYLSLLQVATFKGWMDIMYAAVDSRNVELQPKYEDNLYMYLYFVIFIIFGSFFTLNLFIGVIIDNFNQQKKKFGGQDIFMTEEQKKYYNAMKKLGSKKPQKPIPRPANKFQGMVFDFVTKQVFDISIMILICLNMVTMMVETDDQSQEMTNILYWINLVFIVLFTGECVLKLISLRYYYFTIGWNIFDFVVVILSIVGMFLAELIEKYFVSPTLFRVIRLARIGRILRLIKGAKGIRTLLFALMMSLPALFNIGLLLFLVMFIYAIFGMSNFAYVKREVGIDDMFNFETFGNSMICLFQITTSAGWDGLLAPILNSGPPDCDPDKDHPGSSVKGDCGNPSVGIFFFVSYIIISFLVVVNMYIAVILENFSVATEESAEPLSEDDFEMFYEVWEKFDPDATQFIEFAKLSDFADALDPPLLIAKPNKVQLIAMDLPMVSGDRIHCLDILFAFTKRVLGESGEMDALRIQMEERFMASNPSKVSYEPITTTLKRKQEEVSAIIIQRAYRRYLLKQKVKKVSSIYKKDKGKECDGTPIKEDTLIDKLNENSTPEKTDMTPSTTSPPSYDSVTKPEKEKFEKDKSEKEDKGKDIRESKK

On to `CCCCCCC1(c2ccccc2)NC(=O)NC1=O` (stereo not drawn) [Compound 5], for which, in test [1], the “Final model, −pIC50 Obsd” value is given as −1.11.
Turning to `CCOC(=O)c1ccc(N)cc1` [Compound 21, benzocaine], the “Final model, −pIC50 Obsd” value in test [1] is −2.96.
`CCN1C(=O)NC(=O)C1(C)c1ccccc1` (stereo not drawn) [Compound 8]: in test [1], the “Final model, −pIC50 Obsd” value is recorded as −2.86.
In the case of `CCN(CC)CCOC(=O)c1ccc(N)cc1` [Compound 32], the “Final model, −pIC50 Obsd” value in test [1] is listed as −2.04.
Consider `CCCOc1ccc(C(=O)OCCN(CC)CC)cc1N` [Compound 33], for which the “Final model, −pIC50 Obsd” value in test [1] is on record as −0.28.
Regarding `CCCCCCCC(O)(C(N)=O)c1ccccc1` (stereo not drawn) [Compound 20], in test [1], the “Final model, −pIC50 Obsd” value is −0.95.
On to `O=C1NC(=O)C2(CCCc3ccccc32)N1` (stereo not drawn) [Compound 10], for which the “Final model, −pIC50 Obsd” value in test [1] is −2.93.
In the case of `CCCC1(c2ccccc2)NC(=O)NC1=O` (stereo not drawn) [Compound 1], the “Final model, −pIC50 Obsd” value in test [1] is on record as −2.21.
As for `CCCCCCCC1(c2ccccc2)NC(=O)NC1=O` (stereo not drawn) [Compound 6], the “Final model, −pIC50 Obsd” value in test [1] is given as −0.70.
`CC1CCCCN1CCCOC(=O)c1ccccc1` (stereo not drawn) [Compound 30, piperocaine]: in test [1], the “Final model, −pIC50 Obsd” value is on record as −1.11.
Turning to `O=C1NC(=O)C(c2ccccc2)(C2CCCCC2)N1` (stereo not drawn) [Compound 17], the “Final model, −pIC50 Obsd” value in test [1] is given as −1.76.
`CCCNC(C)C(=O)Nc1ccccc1C` (stereo not drawn) [Compound 31]: in test [1], the “Final model, −pIC50 Obsd” value is recorded as −1.73.
Consider `CCCCCCCCC1(c2ccccc2)NC(=O)NC1=O` (stereo not drawn) [Compound 7], for which, in test [1], the “Final model, −pIC50 Obsd” value is given as −0.70.
With `O=C1C(c2ccccc2)N2CCCCN1C2=O` (stereo not drawn) [Compound 18], in test [1], the “Final model, −pIC50 Obsd” value is −2.85.
With `CCCCC1(c2ccccc2)NC(=O)NC1=O` (stereo not drawn) [Compound 2], in test [1], the “Final model, −pIC50 Obsd” value is reported as −2.01.
Turning to `O=C1C(c2ccccc2)N2CCCCCN1C2=O` (stereo not drawn) [Compound 19], the “Final model, −pIC50 Obsd” value in test [1] is −2.63.
One may read the IC50 as the concentration at which inhibition is half-maximal. For `CCN(CC)CC(=O)Nc1ccc(C2(c3ccccc3)NC(=O)NC2=O)cc1` (stereo not drawn) [Compound 41, 2-Diethylamino-N-[4-(2,5-dioxo-4-phenyl-imidazolidin-4-yl)-phenyl]-acetamide], in test [2], the IC50 was about 39.8 µM and the “−pIC50 Obsd” value is reported as -1.60.
Regarding `CC12C(=O)NC(=O)N1CCc1ccccc12` (stereo not drawn) [Compound 13], the “Final model, −pIC50 Obsd” value in test [1] is recorded as −2.40.
For the compound `CCCOc1cc(N)ccc1C(=O)OCCN(CC)CC.Cl` [Compound 34], the “Final model, −pIC50 Obsd” value in test [1] was −1.38.
Turning to `O=C1NC(=O)C(c2ccccc2)(c2ccccc2)N1` [Compound 36, phenytoin], in test [1], the “Final model, −pIC50 Obsd” value is given as −1.60.
Regarding `CCCCC1(c2cccc(C)c2)NC(=O)NC1=O` (stereo not drawn) [Compound 15], in test [1], the “Final model, −pIC50 Obsd” value was −1.76.
On to `CCCCC1(c2ccc(C)cc2)NC(=O)NC1=O` (stereo not drawn) [Compound 16], for which the “Final model, −pIC50 Obsd” value in test [1] is listed as −1.98.
Consider `COC(=O)[C@H]1[C@@H](OC(=O)c2ccccc2)C[C@@H]2CC[C@H]1N2C` [Compound 24], for which the “Final model, −pIC50 Obsd” value in test [1] is given as −1.69.
Consider `O=C1NC(=O)C2(CCCCCc3ccccc32)N1` (stereo not drawn) [Compound 12], for which the “Final model, −pIC50 Obsd” value in test [1] is recorded as −2.40.
For `CC(CNC1CCCCC1)OC(=O)c1ccccc1` (stereo not drawn) [Compound 27], the “Final model, −pIC50 Obsd” value in test [1] is recorded as −0.85.
As to `CCCCCC1(c2ccccc2)NC(=O)N(C)C1=O` (stereo not drawn) [Compound 4], in test [1], the “Final model, −pIC50 Obsd” value is given as −1.59.
With `O=C1NC(=O)C2(CCCCc3ccccc32)N1` (stereo not drawn) [Compound 11], the “Final model, −pIC50 Obsd” value in test [1] is listed as −2.40.
In the case of `O=C1NC(=O)C2(CCc3ccccc32)N1` (stereo not drawn) [Compound 9], the “Final model, −pIC50 Obsd” value in test [1] was −3.32.
Take `CCCCCCCC(O)(C(N)=O)c1cc(C)c(NC(=O)CN(CC)CC)c(C)c1` (stereo not drawn) [Compound 37, 2-[4-(2-Diethylamino-acetylamino)-3,5-dimethylphenyl]-2-hydroxy-nonanoic acid amide]: the “reversibility of block on washout” value at human Nav1.2 was “partially reversible upon washout”. Besides, in test [2] (37 vs 39 (83% vs 16%) at 40 μM), the “increase in inhibition on heptyl for phenyl substitution at R1” value is “greater than 5 fold”. In test [2], the IC50 was 6 µM and the “−pIC50 Obsd” value is -0.78.
As to `CCOc1ccc(C(=O)OCCN(CC)CC)cc1` [Compound 29], in test [1], the “Final model, −pIC50 Obsd” value is −1.38.
For the compound `CCCCCCCC1(c2cc(C)c(NC(=O)CN(CC)CC)c(C)c2)NC(=O)NC1=O` (stereo not drawn) [Compound 44, 2-Diethylamino-N-[4-(4-heptyl-2,5-dioxo-imidazolidin-4-yl)-2,6-dimethyl-phenyl]-acetamide], in test [2], the half-inhibitory concentration (IC50) was 13.5 µM and the “−pIC50 Obsd” value is given as -1.13.
As for `CCCCC1(c2ccccc2C)NC(=O)NC1=O` (stereo not drawn) [Compound 14], the “Final model, −pIC50 Obsd” value in test [1] was −2.35.
With `CCN(CC)CC(=O)Nc1c(C)cc(C2(c3ccccc3)NC(=O)NC2=O)cc1C` (stereo not drawn) [Compound 42, 2-Diethylamino-N-[4-(2,5-dioxo-4-phenyl-imidazolidin-4-yl)-2,6-dimethyl-phenyl]-acetamide], in test [2], the concentration for half-maximal inhibition (IC50) is about 39.8 µM and the “−pIC50 Obsd” value is recorded as -1.60.
